# Results published in ChEMBL document CHEMBL1145234, “A new synthetic analogue of thymidine, 7-(3-bromo-phenoxy)-thymidine, inhibits the proliferation of tumor cells” (Bioorg Med Chem Lett, 2005).
# pIC50: −log10 of the molar value.
# Test system: HeLa
# Test: Inhibitory concentration against HeLa cell proliferation after 72 hours of incubation; NA means not active
# Type: functional, cell-based, Homo sapiens
# Details: not given; call rule not given here
row,IC50,Compound
1,Not Active,O=c1ccn([C@H]2C[C@H](O)[C@@H](CO)O2)c(=O)[nH]1 [DEOXYURIDINE]

# Test system: HeLa
# Test: Inhibitory concentration against HeLa cell proliferation after 72 hours of incubation
# Type: functional, cell-based
# Details: Homo sapiens
row,Compound,pIC50
1,O=c1[nH]c(=O)n([C@H]2C[C@H](O)[C@@H](CO)O2)cc1COc1ccc([N+](=O)[O-])cc1,3.60
2,O=c1[nH]c(=O)n([C@H]2C[C@H](O)[C@@H](CO)O2)cc1COc1ccc2ccccc2c1,4.30
3,O=c1[nH]c(=O)n([C@H]2C[C@H](O)[C@@H](CO)O2)cc1CSc1cccc2ccccc12,3.30
4,O=c1[nH]c(=O)n([C@H]2C[C@H](O)[C@@H](CO)O2)cc1COc1cccc(Br)c1,4.82
5,Cc1cn([C@H]2C[C@H](O)[C@@H](CO)O2)c(=O)[nH]c1=O [DOXRIBTIMINE],2.40

# Now from value to molecule:
row,pIC50,Compound
1,3.60,CCOc1ccc(OCc2cn([C@H]3C[C@H](O)[C@@H](CO)O3)c(=O)[nH]c2=O)cc1
2,4.30,O=c1[nH]c(=O)n([C@H]2C[C@H](O)[C@@H](CO)O2)cc1COc1cccc2ccccc12
3,4.60,O=c1[nH]c(=O)n([C@H]2C[C@H](O)[C@@H](CO)O2)cc1COc1ccc(Br)cc1
4,3.70,COc1ccc(OCc2cn([C@H]3C[C@H](O)[C@@H](CO)O3)c(=O)[nH]c2=O)cc1
5,3.70,O=c1[nH]c(=O)n([C@H]2C[C@H](O)[C@@H](CO)O2)cc1COc1ccccc1
6,3.60,Cc1ccc(OCc2cn([C@H]3C[C@H](O)[C@@H](CO)O3)c(=O)[nH]c2=O)cc1
